We go through twelve compounds from US9394331B2, “2′-spiro-nucleosides and derivatives thereof useful for treating hepatitis C virus and dengue virus infections” (priority 2010, dated 2016).

Read-outs that look alike come from different tables or passages of the source.

Data set [1] has as its system HCV replicon. As to the kind of experiment: HCV replicon assay (Clone A cells and ET-lunet cells, HCV RNA by real time PCR). Type of data set: cell-based, hepatitis C virus. Particulars: Table 3, HCV 1b replicon; for EC50: read-out: EC50, anti-HCV 1b activity; for EC90: read-out: EC90, anti-HCV 1b activity. The procedure:
HCV replicon assay. HCV replicon assays using Clone A cells and ET-lunet cells were performed as described previously. L. J. Stuyver et al. Antimicrob. Agents Chemother. 2004, 48, 651-654. Briefly, Clone A cells and ET-lunet cells were seeded at a density of 1500 and 3000 cells per well in a 96-well plate, respectively. Test compounds serially diluted in culture medium without G418 were added to cells. Plates were incubated at 37° C. in a 5% CO2 atmosphere for 4 days. Inhibition of HCV RNA replication was determined by quantitative real time PCR. See, e.g., L. J. Stuyver et al. Antiviral Chem. Chemother. 2006, 17, 79-87.
To express the antiviral effectiveness of a compound, the threshold RT-PCR cycle of the test compound was subtracted from the average threshold RT-PCR cycle of the no-drug control (ΔCtHCV). A ΔCt of 3.3 equals a 1-log 10 reduction (equal to the 90% effective concentration [EC90]) in replicon RNA levels. The cytotoxicity of the test compound could also be expressed by calculating the ΔCtrRNA values. The ΔΔCt specificity parameter could then be introduced (ΔCtHCV-ΔCtrRNA), in which the levels of HCV RNA are normalized for the rRNA levels and calibrated against the no-drug control.
(In general: A replicon is a self-replicating genome or part of one, used to study replication in cells.)

In data set [2] the test system is Dengue 2 strain New Guinea C. As to the kind of experiment: Dengue CPE assay. Type of data set: cell-based, Dengue virus 2. To be noted: Table 6, BHK-21 cells, 3 days, 50% cells surviving, read-out: EC50, activity against dengue virus. The procedure: Dengue CPE Assay. To measure cytopathic effect of Dengue virus 2, BHK-21 ([…], CCL-10 ATCC Manassas, Va.) cells were seeded at a density of 20,000 cells/well in a 96-well black/clear bottom plates (Becton Dickinson, Franklin Lakes, N.J.) one day prior to start of the assay and allowed to attach overnight in EMEM (ATCC Manassas, Va.) +10% FBS (Invitrogen, Carlsbad, Calif.) at 37° C. in a humidified 5% CO2 atmosphere. The next day, the medium was removed and the cells were infected with Dengue 2 strain New Guinea C (VR-1584, ATCC Manassas, Va.) at an MOI of 0.08 pfu/cell for two hours in 50 μL EMEM+2% FBS. For both the single point and dose response assays, compounds (2× concentration) were diluted in EMEM+2% FBS and 50 μL was added to infected cells without removing virus. Cells were incubated for 3 days at 37° C. in a humidified 5% CO2 atmosphere. The medium was aspirated and 50 μL of CellTiter-Glo (Promega, Madison, Wis.) was added to each well and read for 0.1 seconds on a Perkin Elmer Victor3 (Waltham, Mass.) plate reader. Percent survival was determined by subtracting the average value of infected control wells and normalizing to the non-infected wells. The effective concentration was calculated from the dose response data by forecasting 50% cells surviving with drug treatment.

Data set [3] relates to Huh7, HepG2, BxPC3, or CEM cells. As to the kind of experiment: Cell cytotoxicity assay (MTS). It counts as cell-based. To be noted: Table 3; cell line not stated. As to the method:
(§1) Cell cytotoxicity assays. Each compound (serially diluted from 100 μM) was added to Huh7 (2×10^3 cells/well), HepG2 (2×10^3 cells/well), BxPC3 (2×10^3 cells/well), or CEM (5×10^3 cells/well) cells and allowed to incubate for 8 days at 37° C. A medium only control was used to determine the minimum absorbance value […]. At the end of the growth period, MTS dye from the CellTiter 96 Aqueous One Solution Cell Proliferation Assay kit (Promega) was added to each well and the plate was incubated for an additional 2 hours. The absorbance at 490 nm was read with a Victor3 plate reader (Perkin Elmer) using the medium only control wells as blanks. The 50% inhibition value (CC50) was determined by comparing the absorbance in wells containing cells and test compound to untreated cell control wells.

Data set [4] is described as follows: Cytotoxicity reported with the dengue assay. It counts as cell-based. Particulars: Table 6; cell line not stated.
Data set [5] in a line: Cell cytotoxicity assay (MTS). Type of data set: cell-based. Particulars: human; Table 3; cell line not stated; read-out: CC50. The procedure: as §1

Regarding `COc1nc(N)nc2c1ncn2C1OC(COP(=O)(N[C@@H](C)C(=O)OC(C)C)Oc2ccccc2)[C@@H](O)[C@]12CCO2` (stereo partly drawn) [compound 119], the EC50 in data set [1] turned out to be 4.52 µM; in data set [2] (Dengue virus, BHK-21, 72 h), 8.64 µM. In addition, the EC90 in data set [1] is more than 20 µM. Further, the CC50 in data set [3] and in data set [4] was more than 20 µM in each case.

Take `COc1nc(N)nc2c1ncn2C1OC(COP(=O)(N[C@@H](C)C(=O)OCC(C)(C)C)Oc2ccccc2)[C@@H](O)[C@]12CCO2` (stereo partly drawn) [compound 120]: the EC50 in data set [1] turned out to be 0.39 µM; in data set [2] (Dengue virus, BHK-21, 72 h), 1.88 µM. For the same compound, the 90% effect concentration (EC90) in data set [1] is 0.676 µM. In addition, the CC50 at 8 days in data set [5] is more than 20 µM. The CC50 in data set [4] is more than 20 µM.

On to `COc1nc(N)nc2c1ncn2C1OC(COP(=O)(N[C@@H](C)C(=O)OCC(C)(C)C)Oc2ccccc2)[C@@H](O)[C@]12CCO2` (stereo partly drawn) [compound 121], for which the EC50 in data set [1] came to 9.31 µM; in data set [2], 2.26 µM. Moreover, the EC90 in data set [1] came out at 18.5 µM. Also, the cytotoxic concentration (CC50) in data set [3] and in data set [4] was more than 20 µM each time.

Consider `CCOC(=O)[C@H](C)NP(=O)(OCC1OC(n2cnc3c(OC)nc(N)nc32)[C@@]2(CCO2)[C@@H]1O)Oc1ccccc1` (stereo partly drawn) [compound 122], for which the concentration for a half-maximal effect (EC50) in data set [1] (Hepatitis C virus) was 0.857 µM; in data set [2] (Dengue virus, BHK-21, 72 h) it was 5.84 µM. In addition, the EC90 in data set [1] (Hepatitis C virus) is 3 µM. In addition, the half-maximal cytotoxic concentration (CC50) at 8 days in data set [5] was more than 20 µM. This compound also came in with a cytotoxic concentration (CC50) in data set [4] of more than 20 µM.

For `COc1nc(N)nc2c1ncn2C1OC(COP(=O)(N[C@@H](C)C(=O)OCC(C)(C)C)Oc2cccc3ccccc23)[C@@H](O)[C@]12CCO2` (stereo partly drawn) [compound 123], in data set [1] (Hepatitis C virus), the concentration giving a half-maximal response (EC50) came to 0.31 µM and the EC90 was 0.853 µM. Besides, in data set [2] (Dengue virus, BHK-21, 72 h), the EC50 is 1.74 µM. Also, in data set [5], the CC50 at 8 days is more than 20 µM. In data set [4], the CC50 is more than 20 µM.

Turning to `COc1nc(N)nc2c1ncn2C1OC(COP(=O)(N[C@@H](C)C(=O)OCC(C)C)Oc2ccccc2)[C@@H](O)[C@]12CCO2` (stereo partly drawn) [compound 124], in data set [1], the EC50 was found to be 0.566 µM and the 90% effect concentration (EC90) was 1.81 µM. Further, the EC50 in data set [2] (Dengue virus, BHK-21, 72 h) was determined as 2.21 µM. Moreover, the CC50 at 8 days in data set [5] was more than 20 µM. Besides, the half-maximal cytotoxic concentration (CC50) in data set [4] is more than 20 µM.

Consider `COc1nc(N)nc2c1ncn2C1OC(COP(=O)(N[C@@H](C)C(=O)OCC(C)C)Oc2ccccc2)[C@@H](O)[C@]12CCO2` (stereo partly drawn) [compound 125], for which the EC50 in data set [1] came to 4.42 µM; in data set [2] it was 1.98 µM. The EC90 in data set [1] was determined as 8.45 µM. The CC50 in data set [3] and in data set [4] was more than 20 µM throughout.

For the compound `CCCCOC(=O)[C@H](C)NP(=O)(OCC1OC(n2cnc3c(OC)nc(N)nc32)[C@@]2(CCO2)[C@@H]1O)Oc1ccccc1` (stereo partly drawn) [compound 126], in data set [1], the EC50 was determined as 0.274 µM and the EC90 is 0.7 µM. Further, in data set [2] (Dengue virus, BHK-21, 72 h), the concentration for a half-maximal effect (EC50) is 2.36 µM. Further, in data set [5], the 50% cytotoxic concentration (CC50) at 8 days is more than 20 µM. The compound also returned a 50% cytotoxic concentration (CC50) in data set [4] of more than 20 µM.

On to `CCCCOC(=O)[C@H](C)NP(=O)(OCC1OC(n2cnc3c(OC)nc(N)nc32)[C@@]2(CCO2)[C@@H]1O)Oc1ccccc1` (stereo partly drawn) [compound 127], for which the half-maximal effective concentration (EC50) in data set [1] stood at 3.1 µM; in data set [2], 1.61 µM. Further, the EC90 in data set [1] is 6.45 µM. Further, the CC50 in data set [3] and in data set [4] was more than 20 µM throughout.

`COc1nc(N)nc2c1ncn2C1OC(COP(=O)(N[C@@H](C)C(=O)OC2CCCC2)Oc2ccccc2)[C@@H](O)[C@]12CCO2` (stereo partly drawn) [compound 128]: in data set [1] (Hepatitis C virus), the EC50 turned out to be 0.45 µM and the EC90 was found to be 1.09 µM. In data set [2] (Dengue virus, BHK-21, 72 h), the EC50 was 2.79 µM. In addition, in data set [5], the CC50 at 8 days is more than 20 µM. In addition, the CC50 in data set [4] was more than 20 µM.

On to `COc1nc(N)nc2c1ncn2C1OC(COP(=O)(N[C@@H](C)C(=O)OC2CCCC2)Oc2ccccc2)[C@@H](O)[C@]12CCO2` (stereo partly drawn) [compound 129], for which the EC50 in data set [1] came to 0.67 µM; in data set [2], 2.36 µM. Further, in data set [1], the concentration for an effect of 90% (EC90) came out at 1.97 µM. Further, the CC50 in data set [3] and in data set [4] was more than 20 µM each time.

As for `COc1nc(N)nc2c1ncn2C1OC(COP(=O)(N[C@@H](C)C(=O)OCc2ccccc2)Oc2ccccc2)[C@@H](O)[C@]12CCO2` (stereo partly drawn) [compound 130], the EC50 in data set [1] (Hepatitis C virus) is 8.65 µM; in data set [2], 3.84 µM. Also, the EC90 in data set [1] (Hepatitis C virus) is 15.1 µM. Further, the CC50 at 8 days in data set [5] was more than 20 µM. In data set [4], this compound yielded a 50% cytotoxic concentration (CC50) of more than 20 µM.

A word on the EC50: it is the concentration giving half of the maximal effect. One may read the EC90 as the concentration needed for an effect of 90%. The term CC50 denotes the concentration that lowers cell viability or growth by half.
